Measured values published in US20120172302A1, “COMPOSITION FOR THE TREATMENT OF BENIGN PROSTATE HYPERPLASIA” (priority 2009, published 2012).
Square brackets hold non-standard residues; d marks the D form. Peptide text beside a SMILES is read from it. * marks the point of attachment. dPhe(4-NHCONH2) = NC(=O)Nc1ccc(C[C@@H](N)C(=O)O)cc1; Dihydroorotyl(S) = O=C1C[C@@H](C(=O)*)NC(=O)N1; dPhe(4-Cl) = N[C@H](Cc1ccc(Cl)cc1)C(=O)O; Phe(4-NH2) = Nc1ccc(C[C@H](N)C(=O)O)cc1; d2Nal = N[C@H](Cc1ccc2ccccc2c1)C(=O)O; Lys(iPr) = CC(C)NCCCC[C@H](N)C(=O)O; d3Pal = N[C@H](Cc1cccnc1)C(=O)O

Tests used:
Type in all cases: in vivo, men
patients with BPH [1] = experiment: IPSS global quality of life (QoL) question, clinical trial; conditions: for Percentage of patients feeling delighted, pleased, or mostly satisfied (IPSS Global QoL scores 0-2) / Percentage of patients feeling unhappy or terrible (IPSS Global QoL scores 5 and 6): combined group
Method: For each patient, the following parameters were measured or assessed (using the methods discussed below), at time points of screening (e.g. −7 days) day 0 (“baseline”), day 14, day 28 and day 42:
After the initial 6-week treatment period of the exploratory study had been completed, a 12-month follow-up period looking at long-term efficacy commenced. Interim data of the main efficacy variables (IPSS, IPSS Global QoL, prostate volume, urinary flow, and post-void residual volume—measured as set out below) after 6 months' follow-up are also presented herein Table 1, 2, 3 FIG. 1b), together with some IPSS data at 9 and 12 months (FIG. 1b).
Included in the IPSS is one item to evaluate QoL (IPSS-global QoL). The Global QoL Question was developed alongside the IPSS and was officially included as part of the IPSS in 1993 when the WHO formally recommended the IPSS for both symptom and QoL assessment. […] This question assesses the degree to which patients find their symptoms bothersome. Patients are asked about how they would feel if they were to spend the rest of their lives with their prostate symptoms just as they are now. The choices for answering this quality of life question ranged from “delighted” (rating=0) to “terrible” (rating=6).

patients with BPH [2] = experiment: Post-void residual volume by transabdominal ultrasound, clinical trial; conditions: for Mean post-void residual volume: all treatment groups
Method: 2] Efficacy Endpoints—the measured Peak Urinary Flow, Post-void Residual Volume, and Prostate Volume.
The Post-void Residual Volume (PVR) was evaluated by transabdominal ultrasound. The urine bladder was sonicated from two directions perpendicular to one another resulting in three cursor positions set by the urologist. The volume was calculated automatically. The investigations were performed by urologists by methods known in the art.

testosterone = experiment: Serum testosterone concentration-time profile (LC-MS/MS), clinical trial; conditions: for Mean time to second return of testosterone to baseline interval (after the second administration): only hypothetical (calculated, not measured)
[3] = Month 6 follow-up, 32 mg group, n=7
[4] = Month 6 follow-up, 64 mg group, n=4
[5] = Month 6 follow-up, 16+16 mg group, n=6
[6] = Month 6 follow-up, 32+32 mg group, n=7
[7] = 16+16 mg group, after the first administration
[8] = 16+16 mg group, after the second administration
[9] = 32+32 mg group, after the first administration
[10] = 32+32 mg group, after the second administration
[11] = first dose of the 32+32 mg group combined with the single dose 32 mg data

CC(=O)N[C@H](Cc1ccc2ccccc2c1)C(=O)N[C@H](Cc1ccc(Cl)cc1)C(=O)N[C@H](Cc1cccnc1)C(=O)N[C@@H](CO)C(=O)N[C@@H](Cc1ccc(NC(=O)[C@@H]2CC(=O)NC(=O)N2)cc1)C(=O)N[C@H](Cc1ccc(NC(N)=O)cc1)C(=O)N[C@@H](CC(C)C)C(=O)N[C@@H](CCCCNC(C)C)C(=O)N1CCC[C@H]1C(=O)N[C@H](C)C(N)=O [Degarelix, D-Alaninamide, N-acetyl-3-(2-naphthalenyl)-D-alanyl-4-chloro-D-phenylalanyl-3-(3-pyridinyl)-D-alanyl-L-seryl-4-[[[(4S)-hexahydro-2,6-dioxo-4-pyrimidinyl]carbonyl]amino]-L-phenylalanyl-4-[(aminocarbonyl)amino]-D-phenylalanyl-L leucyl-N6-(1-methylethyl)-L-lysyl-L-prolyl] (Ac-[d2Nal][dPhe(4-Cl)][d3Pal]S[Phe(4-NH2)](Dihydroorotyl(S))[dPhe(4-NHCONH2)]L[Lys(iPr)]P[dA]-NH2)
Mean IPSS global QoL score (patients with BPH [1]; Baseline of 6-month follow-up patients, 32 mg group, n=7): 2.8 (n = 7)
Mean IPSS global QoL score (patients with BPH [1]; Baseline of 6-month follow-up patients, 64 mg group, n=4): 4.6 (n = 4)
Mean IPSS global QoL score (patients with BPH [1]; Baseline of 6-month follow-up patients, 16+16 mg group, n=6): 4.5 (n = 6)
Mean IPSS global QoL score (patients with BPH [1]; Baseline of 6-month follow-up patients, 32+32 mg group, n=7): 4.3 (n = 7)
Mean IPSS global QoL score (patients with BPH [1]; Baseline, 32 mg group, N=12): 3.8 (1.7)
Mean IPSS global QoL score (patients with BPH [1]; Baseline, 64 mg group, N=13): 4.7 (1.4)
Mean IPSS global QoL score (patients with BPH [1]; Baseline, 16+16 mg group, N=13): 4.2 (1.1)
Mean IPSS global QoL score (patients with BPH [1]; Baseline, 32+32 mg group, N=12): 4.3 (1.3)
IPSS global QoL mean change from baseline (patients with BPH [1]; Day 42, 32 mg group): −2.1 (3.0)
Mean IPSS global QoL score (patients with BPH [1]; Day 42, 32 mg group): 1.8 (2.0)
IPSS global QoL mean change from baseline (patients with BPH [1]; Day 42, 64 mg group): −2.2 (1.6)
Mean IPSS global QoL score (patients with BPH [1]; Day 42, 64 mg group): 2.5 (1.3)
IPSS global QoL mean change from baseline (patients with BPH [1]; Day 42, 16+16 mg group): −1.2 (1.4)
Mean IPSS global QoL score (patients with BPH [1]; Day 42, 16+16 mg group): 2.9 (1.4)
IPSS global QoL mean change from baseline (patients with BPH [1]; Day 42, 32+32 mg group): −2.4 (1.9)
Mean IPSS global QoL score (patients with BPH [1]; Day 42, 32+32 mg group): 1.9 (1.6)
Percentage of patients feeling delighted, pleased, or mostly satisfied (IPSS Global QoL scores 0-2) (patients with BPH [1]; Day 42): 58%
Percentage of patients feeling unhappy or terrible (IPSS Global QoL scores 5 and 6) (patients with BPH [1]; Day 42): 12%
IPSS global QoL change from baseline (patients with BPH [1]; [3]): −1.4 (1.1)
Mean IPSS global QoL score (patients with BPH [1]; [3]): 1.4 (1.5)
IPSS global QoL change from baseline (patients with BPH [1]; [4]): −0.8 (1.7)
Mean IPSS global QoL score (patients with BPH [1]; [4]): 3.8 (1.3)
IPSS global QoL change from baseline (patients with BPH [1]; [5]): −0.3 (0.5)
Mean IPSS global QoL score (patients with BPH [1]; [5]): 4.2 (1.5)
IPSS global QoL change from baseline (patients with BPH [1]; [6]): −2.7 (2.1)
Mean IPSS global QoL score (patients with BPH [1]; [6]): 1.6 (0.8)
Percentage of patients feeling delighted, pleased, or mostly satisfied (IPSS Global QoL scores 0-2) (patients with BPH [1]; baseline): 8%
Percentage of patients feeling unhappy or terrible (IPSS Global QoL scores 5 and 6) (patients with BPH [1]; baseline): 48%
Mean post-void residual volume (patients with BPH [2]; Day 14): decreased
Number of patients with post-void residual volume decreased vs baseline (patients with BPH [2]; Day 42, all groups): 33 patients
Number of patients with post-void residual volume increased vs baseline (patients with BPH [2]; Day 42, all groups): 17 patients
Mean post-void residual volume (patients with BPH [2]; Day 42): lower than the baseline value
Mean minimal value of testosterone (Cnadir) (testosterone; 32 mg group): 0.9 ng/mL
Mean time for first return of testosterone to baseline interval after the first administration (testosterone; 32 mg group): 9.1 (SD=5.2) days
Mean time of testosterone Cnadir (tnadir) (testosterone; 32 mg group): 1.3 days
Number of patients with testosterone below the castration level 0.5 ng/mL at one or more time-points (testosterone; 32 mg group): 3 patients
Percentage of patients with testosterone below the castration level 0.5 ng/mL at one or more time-points (testosterone; 32 mg group): 25%
Testosterone greatest change from baseline (testosterone; 32 mg group): -4.2 ng/mL
Lowest mean testosterone level (testosterone; 32 mg group, on Day 1): 0.9 ng/mL
Mean area of testosterone concentrations below 0.5 ng/mL (testosterone; 32 mg group, range 0.0-0.1): 0.0 ng·days/mL
Mean minimal value of testosterone (Cnadir) (testosterone; 64 mg group): 0.4 ng/mL
Mean time of testosterone Cnadir (tnadir) (testosterone; 64 mg group): 8.8 days
Number of patients with testosterone below the castration level 0.5 ng/mL at one or more time-points (testosterone; 64 mg group): 9 patients
Percentage of patients with testosterone below the castration level 0.5 ng/mL at one or more time-points (testosterone; 64 mg group): 69%
Testosterone greatest change from baseline (testosterone; 64 mg group): -4.7 ng/mL
Number of patients still below testosterone 0.5 ng/mL on Day 42 (testosterone; 64 mg group, of the 8 patients with testosterone <=0.5 ng/mL): Five
Lowest mean testosterone level (testosterone; 64 mg group, on Day 1): 0.4 ng/mL
Mean area of testosterone concentrations below 0.5 ng/mL (testosterone; 64 mg group, range 0.0-15.2): 4.4 ng·days/mL
Time for testosterone level to recover above 0.5 ng/mL (testosterone; 64 mg group, the other three of 8 patients): ≤ 5 days
Duration of castration (testosterone below 0.5 ng/mL) (testosterone; 16+16 mg administration, the 2 castrated patients): less than 2 days
Mean time for first return of testosterone to baseline interval after the first administration (testosterone; 16+16 mg group): 6.1 (SD=2.8) days
Number of patients with testosterone below the castration level 0.5 ng/mL at one or more time-points (testosterone; 16+16 mg group): 2 patients
Percentage of patients with testosterone below the castration level 0.5 ng/mL at one or more time-points (testosterone; 16+16 mg group): 15%
Testosterone greatest change from baseline (testosterone; 16+16 mg group): -4.0 ng/mL
Mean minimal value of testosterone (Cnadir) (testosterone; [7]): 1.4 ng/mL
Mean time of testosterone Cnadir (tnadir) (testosterone; [7]): 1.1 days
Mean minimal value of testosterone (Cnadir) (testosterone; [8]): 2.0 ng/mL
Mean time of testosterone Cnadir (tnadir) (testosterone; [8]): 4.0 days
Lowest mean testosterone level (testosterone; 16+16 mg group, on Day 1): 1.4 ng/mL
Mean time to second return of testosterone to baseline interval (after the second administration) (testosterone; 16+16 mg group): 19.5 (SD=33.9) days
Mean area of testosterone concentrations below 0.5 ng/mL (testosterone; 16+16 mg group, range 0.0-0.0): 0.0 ng·days/mL
Time for testosterone level to recover above 0.5 ng/mL (testosterone; 16+16 and 32 mg groups, 4 of the 5 patients): ≤ 2 days
Time for testosterone level to recover above 0.5 ng/mL (testosterone; 16+16 and 32 mg groups, the remaining patient of 5): ≤ 4 days
Mean time for first return of testosterone to baseline interval after the first administration (testosterone; 32+32 mg group): 9.1 (SD=2.6) days
Number of patients not suppressed below 0.5 ng/mL after the first administration but reaching this level after the second injection (testosterone; 32+32 mg group): Five
Number of patients with testosterone below the castration level 0.5 ng/mL at one or more time-points (testosterone; 32+32 mg group): 9 patients
Number of subjects that had not regained testosterone levels >0.5 ng/mL at Day 42 (testosterone; 32+32 mg group): Three
Percentage of patients with testosterone below the castration level 0.5 ng/mL at one or more time-points (testosterone; 32+32 mg group): 75%
Testosterone greatest change from baseline (testosterone; 32+32 mg group): -4.1 ng/mL
Time for testosterone level to recover above 0.5 ng/mL (testosterone; 32+32 mg group, after first administration, 3 of 4 patients): ≤ 2 days
Mean minimal value of testosterone (Cnadir) (testosterone; [9]): 0.6 ng/mL
Mean time of testosterone Cnadir (tnadir) (testosterone; [9]): 3.2 days
Mean minimal value of testosterone (Cnadir) (testosterone; [10]): 0.4 ng/mL
Mean time of testosterone Cnadir (tnadir) (testosterone; [10]): 4.3 days
Lowest mean testosterone level (testosterone; 32+32 mg group, after the second administration, on Day 17): 0.4 ng/mL
Number of patients with testosterone below 0.5 ng/mL after the first degarelix administration (testosterone; 32+32 mg group, of the 9 patients with testosterone <=0.5 ng/mL): Four
Mean time to second return of testosterone to baseline interval (after the second administration) (testosterone; 32+32 mg group): 64.2 (SD=83.5) days
Mean area of testosterone concentrations below 0.5 ng/mL (testosterone; 32+32 mg group, range 0.0-15.3): 2.8 ng·days/mL
Mean testosterone level (testosterone; Day 42, 32 mg group): 5.3 ng/mL
Mean testosterone level (testosterone; Day 42, 64 mg group): 3.0 ng/mL
Mean testosterone level (testosterone; Day 42, 16+16 mg group): 4.5 ng/mL
Mean testosterone level (testosterone; Day 42, 32+32 mg group): 2.7 ng/mL
Number of patients with testosterone below the castration level 0.5 ng/mL at one or more time-points (testosterone; all groups, of the 50 patients, up to Day 42): 22 patients
Mean testosterone level (testosterone; baseline, 32 mg group): 5.2 ng/mL
Mean testosterone level (testosterone; baseline, 64 mg group): 5.2 ng/mL
Mean testosterone level (testosterone; baseline, 16+16 mg group): 5.5 ng/mL
Mean testosterone level (testosterone; baseline, 32+32 mg group): 4.5 ng/mL
Duration of castration (testosterone below 0.5 ng/mL) (testosterone; first dose of the 32+32 mg group combined with single dose 32 mg, the 8 castrated patients, generally): 2 to 4 days
Number of patients castrated (testosterone below 0.5 ng/mL) (testosterone; [11]): 8 patients
Percentage of patients castrated (testosterone below 0.5 ng/mL) (testosterone; [11]): 33%
Testosterone area below and time to return to the baseline interval, total 64 mg vs total 32 mg (testosterone; groups given a total of 64 mg degarelix compared to the total dose 32 mg): more than 2 fold
